Experimental data taken from patent EP0137439A2, “Antitumour agent” (Henkel Kommanditgesellschaft auf Aktien, priority 1983, dated 1985).

Tested on: Tumorart P 388 (Leukämie)
Experiment: P 388 leukemia survival test in mice, NCI protocol 1200
Format: in vivo, Mäusen
Settings: P 388 i.p. in mice; for T/C-Wert: aqueous 1% injection solution, rate of survival prolongation vs untreated animals; for 30 Tage überlebende Tiere (von 6): animals out of 6 alive at 30 days
Text: Epoxid-0: gef. 18,94 %, ber. 18,82 % Die nachfolgenden Versuche wurden durchgeführt nach Testvorschriften des National Cancer Institute Bethesda, Maryland 200014, veröffentlicht in "Cancer Chemotherapy Reports" Part. 3, September 1972, Vol. 3, Nr. 2. Als Wirksubstanz wurde 1,2-Diglycidyl-4-diglycidylamino- urazol des vorstehenden Beispiels 1 verwendet. Die Substanz wurde als wäßrige, 1%ige In jektions lösung unmittelbar vor der Applikation frisch hergestellt.
Bei Mäusen wurde gemäß Protokoll 1200 (S. 91c) die Tumorart P 388 (Leukämie) i.p. mit […] gesetzt. Die mittlere Uberlebensdauer der unbehandelten Tiere wird bestimmt.
In weiteren Versuchsgruppen wird entsprechend vorbehandelten Tieren der Wirkstoff applizi-ert. Es wird eine signifikante Verlängerung der Lebensdauer der behandelten Testtiere gegenüber der mittleren Überlebensdauer der nicht mit dem Wirkstoff behandelten Tiere erzielt. Die Verlängerungsrate T/C in Abhängigkeit von der Dosierung des Wirkstoffes ist in der folgenden Tabelle zusammengestellt: […]

## O=c1n(N(CC2CO2)CC2CO2)c(=O)n(CC2CO2)n1CC1CO1 (stereo not drawn) [1,2-Diglycidyl-4-diglycidyl-aminourazol, 1,2-Diglycidyl-4-diglycidylamino-urazol]
Dose 25 mg/kg
  T/C-Wert: 155
Dose 50 mg/kg
  30 Tage überlebende Tiere (von 6): 6
  T/C-Wert: >300
Dose 6,25 mg/kg
  30 Tage überlebende Tiere (von 6): 3
  T/C-Wert: 291
Dose 12,5 mg/kg
  T/C-Wert: 142

## O=c1n(CC2CO2)c(=O)n(CC2CO2)n1CC1CO1 (stereo not drawn) [Triglycidylurazol]
Dose 25 mg/kg
  30 Tage überlebende Tiere (von 6): 4
  T/C-Wert: 260
Dose 50 mg/kg
  30 Tage überlebende Tiere (von 6): 6
  T/C-Wert: 300
Dose 6,25 mg/kg
  T/C-Wert: 180
Dose 12,5 mg/kg
  T/C-Wert: 230
